Assay results: patent publication US20080200405A1, “Drug Resistance Reversal In Neoplastic Disease” (priority 2007, published 2008)
Like-named read-outs stand apart in the source and are kept apart here.

Legend:
[1] = test system: TNFα; test: Measurement of LPS Induced-TNFα in THP-1 Cells; format: cell-based, human
Experimental: The lipid peroxidation assay method of Ohkawa, H.; Ohishi, N.; Yaki, K. Anal. Biochem. 1979, 95, 351 was used to evaluate […]. […] […] Cells were collected and spun at 1500 g for 10 minutes. Supernatant was collected and analyzed for TNFα.
Mean Percent Inhibition of TNF-alpha by compounds of the present invention is set forth in Table B. TNF-alpha inhibition data is set forth in Table B-1. OT-551 was used in both native form and in the form of nanoparticles. […] Other nitrogenous heterocyclic species of the invention are expected to show similar improvement in efficacy when disposed in nanoparticulate form.

[2] = test system: Angiogenesis in CAM; test: Neovascularization on the CAM (Inhibition of Angiogenesis in CAM); format: in vivo, chicken; details: for inhibition in vivo at 0.03 mg: Gallus gallus; for inhibition in vivo at 0.03 mg / % inhibition of angiogenesis in CAM at 30 ug: 30 ug; for Inhibition of Angiogenesis in CAM, % Inhibition: 300 ug
Experimental: In vivo neovascularization was examined by the method previously described by Auerbach et al. (J. Dev. Biol. 41:391-394 (1974)). Ten-day old chicken embryos were purchased from Spafas, Inc. (Preston, Conn.) and were incubated at 37° C. with 55% relative humidity. In the dark, with the aid of a candling lamp, a small hole was punctured in the shell concealing the air sac with a hypodermic needle. A second hole was punctured in the shell on the broadside of the egg directly over an […] portion of the embryonic membrane, as observed during candling. An artificial air sac was created beneath the second hole by applying gentle vacuum to the first hole using a small rubber squeeze bulb. The vacuum caused the chorioallantoic membrane (CAM) to separate from the shell. A window, approximately 1.0 cm^2, was cut in the shell over the dropped CAM with the use of a small crafts grinding wheel (Dremel, Division of Emerson Electric Company Racine, Wis.). The window allowed direct access to the underlying CAM. A pro-angiogenic agent was added to induce new blood vessel branches on the CAM of 10-day old embryos. […] Louis, Mo.) in a solution (95% ethanol and water). The disks were subsequently air dried under sterile conditions. The disks were then suspended in PBS (Phosphate Buffered Saline) and placed on growing CAMs. […] For inducing angiogenesis, sterile filter disks were saturated with bFGF (1 μg/ml) (Life Technologies, Gaithersburg, Md.) or other pro-angiogenesis factors and control disks were saturated with PBS without Calcium and Magnesium. Control disks were saturated with PBS without Calcium and Magnesium. Using sterile forceps one filter/CAM was placed from the window. The window was sealed with Highland brand transparent tape. After 24-48 hr, 10-25 ul of test agent was injected intravenously or added topically into the CAM membrane. Eight-Ten eggs/treatment group were used. CAM tissue directly beneath filter disk was harvested from embryos treated 48 hours prior with compound or control. Tissues were washed three times with PBS. Sections were placed in a 35-mm petri dish (Nalge Nunc, Rochester, N.Y.) and examined under a SV6 stereomicroscope (Karl Zeiss, Thornwood, N.Y.) at 50× magnification. […] Digital images of CAM sections from Petri dish were collected using a 3-CCD color video camera system (Toshiba America, New York, N.Y.). These images were analyzed using Image-Pro Plus software (Media Cybernetics, Silver Spring, Md.). The number of branch points in blood vessels within the circular region superimposed to the area of a filter disk was counted for each section. […] Tissues were washed three times with PBS. Sections were placed in a 35-mm Petri dish (Nalge Nunc; Rochester, N.Y.) and were examined under a SV6 stereomicroscope (Karl Zeiss; Thornwood, N.Y.) at 50× magnification. Digital images of CAM sections adjacent to filters were collected using a 3-CCD color video camera system (Toshiba America; New York, N.Y.) and analyzed with the Image-Pro Plus software (Media Cybernetics; Silver Spring, Md.). The number of vessel branch points contained in a circular region equal to the area of a filter disk was counted for each section. Percent inhibition data are expressed as the quotient of the experimental value minus the negative control value divided by the difference between the positive control value and the negative control value. One image was counted in each CAM preparation, and findings from eight CAM preparations were analyzed for each treatment condition. In addition, each experiment was performed three times. The resulting angiogenesis index is the mean ±SEM (Standard Error of Measurement) of new branch points in each set of treatment. Statistical analysis of blood vessel branching patterns are performed by 1-way analysis of variance (ANOVA) comparing experimental with corresponding control groups.

[3] = test system: Doxorubicin resistant SaOS2 cells; test: Cancer cell viability (MTT) in the presence or absence of doxorubicin; format: cell-based, human; details: compound 50 ug/mL, 3 days
[4] = test system: bFGF-induced angiogenesis in the CAM model; test: bFGF (FGF2)-stimulated CAM model; format: in vivo, chicken; details: bFGF/FGF2 1 ug, 30 ug injected; for inhibition in vivo at 0.03 mg: Gallus gallus, read-out: % Inhibition ± SEM
Experimental: In vivo neovascularization was examined by the method previously described by Auerbach et al. (J. Dev. Biol. 41:391-394 (1974)). Ten-day old chicken embryos were purchased from Spafas, Inc. (Preston, Conn.) and were incubated at 37° C. with 55% relative humidity. In the dark, with the aid of a candling lamp, a small hole was punctured in the shell concealing the air sac with a hypodermic needle. A second hole was punctured in the shell on the broadside of the egg directly over an […] portion of the embryonic membrane, as observed during candling. An artificial air sac was created beneath the second hole by applying gentle vacuum to the first hole using a small rubber squeeze bulb. The vacuum caused the chorioallantoic membrane (CAM) to separate from the shell.
For inducing angiogenesis, sterile filter disks were saturated with bFGF (1 μg/ml) (Life Technologies, Gaithersburg, Md.) or other pro-angiogenesis factors and control disks were saturated with PBS without Calcium and Magnesium. Control disks were saturated with PBS without Calcium and Magnesium.
After 24-48 hr, 10-25 ul of test agent was injected intravenously or added topically into the CAM membrane. Eight-Ten eggs/treatment group were used.
The number of vessel branch points contained in a circular region equal to the area of a filter disk was counted for each section. Percent inhibition data are expressed as the quotient of the experimental value minus the negative control value divided by the difference between the positive control value and the negative control value. One image was counted in each CAM preparation, and findings from eight CAM preparations were analyzed for each treatment condition. In addition, each experiment was performed three times. The resulting angiogenesis index is the mean ±SEM (Standard Error of Measurement) of new branch points in each set of treatment. Statistical analysis of blood vessel branching patterns are performed by 1-way analysis of variance (ANOVA) comparing experimental with corresponding control groups. Statistical significance differences are assessed at P value of <0.05.
The CAM model protocol was modified to include stimulus with bFGF. The effect of injected OT 551 was assayed.
TP-H was applied to the CAM model study to determine its respective anti-angiogenesis effects according to the materials and methods provided in Example 1. Basic Fibroblast Growth Factor (bFGF) was used to induce angiogenesis in the CAM model.
Compounds were introduced via injection to the CAM model study to determine its respective anti-angiogenesis effects according to the materials and methods provided in Example 1. bFGF was used to induce angiogenesis in the CAM model.

[5] = test system: Lipid peroxidation; test: Lipid peroxidation inhibition (method of Ohkawa); format: biochemical; details: for Lipid Peroxidation Inhibition, % Inhibition: 10 uM
[6] = test system: Human whole blood clot formation
Experimental: TEG: Human whole blood (±drugs) was added to the cylindrical cuvette (“cup”). […] The cup oscillates 4°45′ ( 1/12 radian) in either direction every 4.5 seconds, with a 1-second mid-cycle stationary period, resulting in a frequency of 0.1 Hz and a maximal shear rate of 0.1 per second. The pin was suspended by a torsion wire that acts as a torque transducer. […] The torque experienced by the pin (relative to the oscillation of the cup) was plotted as a function of time (Forsythe, S. A. M. S. K. M. S. (2000): “Comparative In Vitro Efficacy of Different Platelet Glycoprotein IIb/IIIa Antagonists on Platelet-Mediated Clot Strength Induced by Tissue Factor With Use of Thromboelastography.” Arteriosclerosis, Thrombosis, and Vascular Biology 20: 1162).
(Data represent mean ±SD, n=6 (blood form normal healthy volunteers), *P<0.01 as compared to control)

[7] = Homo sapiens, THP-1, compound 10 uM, 5 ng/mL LPS, read-out: Mean Percent Inhibition of TNF-alpha using 5 ng/mL LPS
[8] = Homo sapiens, THP-1, read-out: TNFalpha IC50
[9] = TEG, human whole blood, Bevacizumab 1 ng/cup, Comp. 4 0 uM, *P<0.01 vs control

| IC50 [1, 8] | melting point | Molecule | inhibition at 10 µM [1, 7] | inhibition in vivo at 0.03 mg [2] | Mean OD (×10^−3), MTT viability ([3]; Dox. 10^−6 M (+)) | Mean OD (×10^−3), MTT viability ([3]; absence of Dox. (−)) | also measured |
| --- | --- | --- | --- | --- | --- | --- | --- |
| 16.4 µM |  | CC1(C)CC(Oc2nsnc2Cl)CC(C)(C)N1O [Compound 13, 4-(4-chloro-1,2,5-thiadiazol-3-yloxyl)-1-hydroxyl-2,2,6,6-tetramethylpiperidine hydrogen chloride] | 36% | 93.4% |  |  |  |
| ≥ 100 µM |  | CC1(C)CC(NC(=O)C2CC2)C(C)(C)N1O.Cl (centres unmarked) [Compound 38, N-(1-hydroxy-2,2,5,5-tetramethylpyrrolidin-3-yl)cyclopropanecarboxamide hydrogen chloride] |  |  | 378.50 ×10^−3 | 1202.75 ×10^−3 | % inhibition of angiogenesis in CAM at 30 ug [2]: 62.8 |
| 29.4 µM | 191.5 °C (dec.) | CC1C(O)C(C)C(C)(C)N(O)C1(C)C.Cl (centres unmarked) [Compound 6, 2,2,3,5,6,6-Hexamethyl-piperidine-1,4-diol hydrogen chloride salt] | 54 ± 6% |  | 185.25 ×10^−3 | 367.00 ×10^−3 | inhibition in vivo at 0.03 mg [4]: 40.4 ± 9.3%; Branch pts ± SEM [4]: 78.6 ± 7.3; % Lipid Peroxidation inhibition (at 1 uM) ([5]; 1 uM): 70.5%; Lipid Peroxidation Inhibition, % Inhibition [5]: 89.0% |
| 20.7 µM | 158.1 °C (dec.) | CC1(C)CC(NC(=O)N2CCOCC2)CC(C)(C)N1O.Cl [Compound 11, N-(2,2,6,6-tetramethylpiperidin-1-hydroxyl-4-yl)morpholine-4-carboxamide hydrogen chloride] | 24 ± 5% |  | 267.25 ×10^−3 | 470.25 ×10^−3 | inhibition in vivo at 0.03 mg [4]: 71 ± 8.8%; Branch pts ± SEM [4]: 64.0 ± 5.1; Lipid Peroxidation Inhibition, % Inhibition [5]: 82.7% |
| 21.5 µM | 186 °C (dec.) | CC1(C)CC(C#N)CC(C)(C)N1O.Cl [Compound 12, 4-cyano-1-hydroxyl-2,2,6,6-tetramethylpiperidine hydrogen chloride] | 35% | 92.1% | 287.25 ×10^−3 | 539.25 ×10^−3 |  |
| 21.7 µM | 201.8 °C (dec.) | CC1(C)CC(Cl)CC(C)(C)N1O.Cl [Compound 21, 4-chloro-1-hydroxy-2,2,6,6-tetramethylpiperidine hydrogen chloride] |  | 94.1% | 99.25 ×10^−3 | 492.75 ×10^−3 |  |

More lines, now with the values behind:

| Molecule | IC50 [1, 8] | melting point | inhibition at 10 µM [1, 7] | inhibition in vivo at 0.03 mg [2] | Mean OD (×10^−3), MTT viability ([3]; Dox. 10^−6 M (+)) | Mean OD (×10^−3), MTT viability ([3]; absence of Dox. (−)) | also measured |
| --- | --- | --- | --- | --- | --- | --- | --- |
| CC(=O)NC1CC(C)(C)N(O)C(C)(C)C1.Cl [Compound 2, 1-hydroxy-4-acetamido-2,2,6,6-tetramethylpiperidine] | 17 µM | 180.5 °C (dec.) | 64 ± 5% |  | 249.25 ×10^−3 | 496.33 ×10^−3 | inhibition in vivo at 0.03 mg [4]: 76.4 ± 9.9%; Branch pts ± SEM [4]: 84.7 ± 11.1; Lipid Peroxidation Inhibition, % Inhibition [5]: 81.0% |
| Bevacizumab: a monoclonal antibody against vascular endothelial growth factor used to treat cancer by inhibiting angiogenesis [reference compound] |  |  |  |  |  |  | MA in comparison to native blood [6]: approximately six times larger MA; initiation of clot formation in comparison to native blood [6]: approximately two to three fold faster; Clot Strength - MA [6, 9]: 33.8 ± 5.6* mm; Time to Clot Initiation R [6, 9]: 7.8 ± 1.1* min |
| CC1(C)C=C(C(N)=O)C(C)(C)N1O [Compound 23, 2,5-dihydro-2,2,5,5-tetramethyl-1H-pyrrole-3-carboxamide-1-hydroxy] |  |  |  |  | 416.25 ×10^−3 | 1432.50 ×10^−3 | IC50 ([1]; read-out: TNFalpha IC50): 87.4 µM; % inhibition of angiogenesis in CAM at 30 ug [2]: 48.8 |
| Vitamin E [reference compound] |  |  |  |  |  |  | Inhibition of Angiogenesis in CAM, % Inhibition [2]: 22 ± 6% |
| CC1(C)CC(Oc2nsnc2OC2CC(C)(C)N(O)C(C)(C)C2)CC(C)(C)N1O [Compound 14, 1-hydroxyl-4-(4-(2,2,6,6-tetramethylpiperidin-1-hydroxyl-4-yloxy)-1,2,5-thiadiazol-3-yloxy)-2,2,6,6-tetramethylpiperidine bis-hydrogen chloride] |  |  |  | 95.2% |  |  | inhibition at 10 µM ([1]; Homo sapiens, THP-1, read-out: Mean Percent Inhibition of TNF-alpha using 5 ng/mL LPS): 63 ± 1%; IC50 ([1]; Homo sapiens, THP-1, read-out: TNFalpha IC50 (uM)): 11.4 µM |
| O=C1O[C@H]([C@@H](O)CO)C(O)=C1O [Vitamin C, reference compound] |  |  |  |  |  |  | Inhibition of Angiogenesis in CAM, % Inhibition [2]: 15 ± 7% |
